{
  "source": "ChEMBL document CHEMBL1148963",
  "about": "“Four new eudesmanes from Caragana intermedia and their biological activities” (J Nat Prod, 2004)",
  "key": {"[1]": {"test_system": "Human immunodeficiency virus 1", "assay": "Antiviral activity against HIV1 3B infected in human MT2 cells", "type": "functional, organism-based", "conditions": "Human immunodeficiency virus 1, 3B"}, "[2]": {"test_system": "C2C12", "assay": "Increase in glucose consumption in mouse C2C12 cells assessed as improved glucose transformation", "type": "functional, cell-based"}, "[3]": {"test_system": "Pyricularia oryzae", "assay": "Antimicrobial activity against Pyricularia oryzae P-2b", "type": "functional"}},
  "data": [
    {"smiles": "C=C1CC[C@@H](O)[C@]2(C)CC[C@H](C(C)C)[C@@H](O)[C@H]12", "values": [
      {"measurement": "IC50", "setting": "[1]", "value": 10, "unit": "µg/mL"}
    ]},
    {"smiles": "C=C1CC[C@@H](O)[C@]2(C)CC[C@@H](C(C)C)C[C@@]12O", "values": [
      {"measurement": "IC50", "setting": "[2]", "value": 10.7, "unit": "µg/mL"},
      {"measurement": "MIC", "setting": "[3]", "value": 20, "unit": "µg/mL"}
    ]},
    {"smiles": "C=C1CC[C@@H](O)[C@]2(C)CC[C@](O)(C(C)C)C[C@@H]12", "values": [
      {"measurement": "MIC", "setting": "[3]", "value": 16, "unit": "µg/mL"}
    ]},
    {"smiles": "C=C1CC[C@@H](O)[C@]2(C)CC[C@@](O)(C(C)C)C[C@@H]12", "values": [
      {"measurement": "MIC", "setting": "[3]", "value": 12, "unit": "µg/mL"}
    ]}
  ]
}
